Like-named read-outs stand apart in the source and are kept apart here.
Experiments:
[1] = tested on: 786-O; assay: Cytotoxicity in vitro (MTT) in presence/absence of elastase; format: cell-based, human; conditions: 72 h
Procedure: (§1) Cultivation of cells was performed according to standard procedures with the media recommended by the provider. The cells, in a total volume of 100 μL, were seeded in a 96-well plate with a white bottom (#3610). After a 24 h incubation period at 37° C. and […], the medium was exchanged by adding 90 μL fresh medium. The treatment started by adding the test compound in 10 μL of culture medium to the cells in triplicates. Concentrations ranging from 10^−5 M to 10^−13 M were chosen. Two identically treated sets of samples were prepared. One set was treated with the test compound alone, whereas to the second set the compound and 10 nM elastase was added followed by a 72 h incubation period at 37° C. and […]. The proliferation was detected using the MTT assay (ATCC). At the end of the incubation period the MTT reagent was added to all samples for 4 h. Lysis of the cells followed by addition of the detergent was done overnight. The formed dye was detected at 570 nm. The proliferation of untreated but otherwise identically handled cells was define as the 100% value.

[2] = tested on: HT29; assay: as above; format: cell-based, human; conditions: 72 h
Procedure: as §1

[3] = tested on: NCI H292; assay: as above; format: cell-based, human; conditions: 72 h
Procedure: as §1

[4] = tested on: SUM149; assay: as above; format: cell-based; conditions: 72 h
Procedure: as §1

[5] = tested on: 786-O; assay: Cytotoxicity assay (Version 2, automated, AC50) with/without neutrophil elastase; format: cell-based, human; conditions: Version 2, activity concentration at −50%
Procedure, shortened: (§2)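 An automated MTT read-out (570 nm, 4 h reagent) followed 72 h at 37 °C with compound from 10^−5 to 10^−13 M, in triplicate, tested with and without 10 nM elastase. AC50, the concentration giving −50% metabolic activity, came from a 4-parameter Hill fit. Scaling ran from medium-only wells (−100%) to DMSO controls (0%).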

[6] = tested on: HT29; assay: as above; format: cell-based, human; conditions: Version 2, activity concentration at −50%
Procedure, shortened: as §2

[7] = tested on: NCI H292; assay: as above; format: cell-based, human; conditions: NCI H292, with (+) neutrophil elastase, Version 2, activity concentration at −50%
Procedure, shortened: as §2

[8] = tested on: SUM149; assay: as above; format: cell-based; conditions: Version 2, activity concentration at −50%
Procedure, shortened: as §2

[9] = 37° C.
Procedure: Method for measurement of stability in rat and human plasma: 1 mg of the test compound was dissolved in 0.5 ml acetonitrile/dimethylsulfoxide 1:1. For complete dissolution the HPLC vial was shaken and sonicated. While vortexing, 20 μl of this solution was added to 1 ml 37° C. warm plasma. After 10 min, 0.5 h, 1 h, 1.5 h, 2 h, and 4 h, the assay was stopped by adding 100 μl of the compound plasma solution to a vial containing 300 μl acetonitrile/buffer pH 3 (80:20) at RT. The mixture was centrifuged at 5000 rpm for 10 minutes. The supernatant was analyzed by HPLC to determine the amount of the test compound and up to two byproducts. To values resulted from a processed sample immediately taken after vortexing with plasma at RT. The peak areas (in percentage) were used for quantification. All data was given as percent area of the initial compound at to. The results of these assays are shown in FIG. 1 and FIG. 2 for rat and human plasma, respectively.

[10] = buffer pH 7.4, 37° C.
Procedure: Method for measurement of stability in buffer: 0.15 mg of the test compound was dissolved in 0.1 ml dimethylsulfoxide and 0.4 ml acetonitrile. For complete dissolution, the HPLC vial with the sample solution was shaken and sonicated. Then 1.0 ml of the respective buffer solution was added, and the sample was vortexed. The sample solution was analysed by HPLC to determine the amount of the test compound and up to two byproducts at a particular time over a period of 24 h at 37° C. […] The peak areas (in percentage) were used for quantification.

[11] = without (−) neutrophil elastase
[12] = HT29, without (−) neutrophil elastase
[13] = SUM149, without (−) neutrophil elastase

CCCNC(=O)Nc1cccc(S(=O)(=O)Nc2cccc([C@@H](CC(=O)[O-])NC(=O)Nc3ccc(NC(=O)NCCOCCOCCOCCC(=O)N[C@@H](CC(=O)[O-])C(=O)N4CCC[C@H]4C(=O)N[C@H](C(=O)N=[S@@](C)(=O)Cc4cc5cc(c4)OCCCCOc4cc(F)ccc4-c4nc(ncc4F)N5)C(C)C)cc3)c2)c1.[Na+].[Na+] [Compound 3]
IC50 ([1]; with (+) 10 nM neutrophil elastase): ≤ 1 nM
IC50 [1, 11]: > 100 nM
IC50 ([2]; HT29, with (+) 10 nM neutrophil elastase): ≤ 1 nM
IC50 [2, 12]: > 100 nM
IC50 ([3]; NCI H292, with (+) 10 nM neutrophil elastase): ≤ 1 nM
IC50 ([3]; NCI H292, without (−) neutrophil elastase): > 100 nM
IC50 ([4]; SUM149, with (+) 10 nM neutrophil elastase): ≤ 1 nM
IC50 [4, 13]: > 100 nM
AC50 ([5]; with (+) neutrophil elastase): 11 to 100 nM
AC50 [5, 11]: > 1000 nM
AC50 ([6]; HT29, with (+) neutrophil elastase): 11 to 100 nM
AC50 [6, 12]: > 1000 nM
AC50 [7]: 11 to 100 nM
AC50 ([8]; SUM149, with (+) neutrophil elastase): 11 to 100 nM
AC50 [8, 13]: 100 to 1000 nM
time stable in plasma (no significant degradation) ([9]; human plasma): at least 4 h
time stable in plasma (no significant degradation) ([9]; rat plasma): at least 4 h
time stable in buffer (no significant degradation) [10]: at least 24 h

From patent US20240408222A1, “COMPOUNDS, PHARMACEUTICAL COMPOSITIONS, AND METHODS FOR THE TREATMENT, PREVENTION, OR MANAGEMENT OF HYPERPRO[…]” (VINCERX PHARMA GMBH, priority 2021, published 2024)
